Experimental data published in patent US11339156B2, “3-(1H-pyrazol-4-yl)pyridine allosteric modulators of the M4 muscarinic acetylcholine receptor” (Merck Sharp & Dohme Corp., priority 2017, dated 2022).

molecular target: T1, human M4 muscarinic acetylcholine receptor (Homo sapiens, UniProt P08173); assay: human FLIPR-based M4 PAM assay (CHO-K1 cells with human M4 receptor and Gαqi5, calcium dye fluorescence); format: cell-based; conditions: inflection point of 4 parameter logistic fit; acetylcholine added at 20% of maximum response; read-out: M4PAM IP
T1 construct: expressed in transfected cells
T1 sequence (P08173 1-479): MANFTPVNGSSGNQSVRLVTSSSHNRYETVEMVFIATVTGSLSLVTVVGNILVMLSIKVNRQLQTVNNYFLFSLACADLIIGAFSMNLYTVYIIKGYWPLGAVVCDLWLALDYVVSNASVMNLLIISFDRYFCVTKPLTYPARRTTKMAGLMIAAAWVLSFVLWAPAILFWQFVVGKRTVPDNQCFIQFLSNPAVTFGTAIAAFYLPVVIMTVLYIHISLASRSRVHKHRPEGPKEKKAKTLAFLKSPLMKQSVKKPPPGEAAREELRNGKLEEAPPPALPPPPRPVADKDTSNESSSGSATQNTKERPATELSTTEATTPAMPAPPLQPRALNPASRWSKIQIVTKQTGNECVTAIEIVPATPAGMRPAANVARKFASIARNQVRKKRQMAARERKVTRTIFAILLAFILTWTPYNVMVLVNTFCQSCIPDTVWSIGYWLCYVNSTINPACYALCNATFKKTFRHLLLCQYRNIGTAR
Procedure, shortened: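 CHO-K1 cells were loaded with calcium dye at 37 °C for ~1 h. Fluorescence (ex 470–495/em 515–575 nm) was read for 4 min after test compound at increasing concentrations, then 3.5 min after acetylcholine at an EC20; sometimes a third addition at EC70 followed. The value is the inflection point of a 4-parameter logistic fit.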

Row | Compound | EC50
1 | Cc1nc2cc(-c3nc(C#N)ccc3-c3cnn(CC(C)(C)C(C)(F)F)c3)ccc2n1C [Example 28, 5-[1-(3,3-difluoro-2,2-dimethylbutyl)-1H-pyrazol-4-yl]-6-(1,2-dimethyl-1H-benzimidazol-5-yl)pyridine-2-carbonitrile] | 67.4 nM
2 | N#Cc1ccc(-c2cnn(CC(F)(F)C(F)(F)C(F)(F)F)c2)c(-c2ccn3ccnc3c2)n1 [Example 24, 5-[1-(2,2,3,3,4,4,4-heptafluorobutyl)-1H-pyrazol-4-yl]-6-imidazo[1,2-a]pyridin-7-ylpyridine-2-carbonitrile] | 89.9 nM
3 | Cc1nc2cc(-c3ncc(F)cc3-c3cnn(CC4CC(F)(F)C4)c3)ccc2n1C [Example 61, 5-(3-(1-((3,3-difluorocyclobutyl)methyl)-1H-pyrazol-4-yl)-5-fluoropyridin-2-yl)-1,2-dimethyl-1H-benzo[d]imidazole] | 161 nM
4 | CC(C)CCn1cc(-c2ccc(Cl)nc2-c2ccc3c(c2)C(=O)N(Cc2ccccn2)C3)cn1 [Example 112, 6-{6-chloro-3-[1-(3-methylbutyl)-1H-pyrazol-4-yl]pyridin-2-yl}-2-(pyridin-2-ylmethyl)-2,3-dihydro-1H-isoindol-1-one] | 60.8 nM
5 | N#Cc1ccc(-c2cnn(CC(F)(F)C(F)(F)F)c2)c(-c2ccn3ccnc3c2)n1 [Example 42, 6-imidazo[1,2-a]pyridin-7-yl-5-[1-(2,2,3,3,3-pentafluoropropyl)-1H-pyrazol-4-yl]pyridine-2-carbonitrile] | 151 nM
6 | Cc1nc2cc(-c3ncccc3-c3cnn(CC(C)(C)C(C)(F)F)c3)ccc2n1C [Example 102, 5-{3-[1-(3,3-difluoro-2,2-dimethylbutyl)-1H-pyrazol-4-yl]pyridin-2-yl}-1,2-dimethyl-1H-benzimidazole] | 113 nM
7 | Cc1cn2ccc(-c3nc(C#N)ccc3-c3cnn(CC(C)(C)F)c3)cc2n1 [Example 122, 5-(1-(2-fluoro-2-methylpropyl)-1H-pyrazol-4-yl)-6-(2-methylimidazo[1,2-a]pyridin-7-yl)picolinonitrile] | 78.1 nM
8 | Cc1cn2ccc(-c3nc(C#N)ccc3-c3cnn(CC(O)C(C)C)c3)cc2n1 (stereo not drawn) [Example 90, 5-[1-(2-hydroxy-3-methylbutyl)-1H-pyrazol-4-yl]-6-(2-methylimidazo[1,2-a]pyridin-7-yl)pyridine-2-carbonitrile] | 92.2 nM
9 | Fc1cc(-c2cnn(CC3(C(F)(F)F)CC3)c2)c(-c2ccn3ccnc3c2)nc1F [Example 53, 7-(5,6-difluoro-3-(1-((1-(trifluoromethyl)cyclopropyl)methyl)-1H-pyrazol-4-yl)pyridin-2-yl)imidazo[1,2-a]pyridine] | 234 nM
10 | Cc1cn2ccc(-c3nc(C#N)ccc3-c3cnn(CC(C)(C)CO)c3)cc2n1 [Example 127, 5-(1-(3-hydroxy-2,2-dimethylpropyl)-1H-pyrazol-4-yl)-6-(2-methylimidazo[1,2-a]pyridin-7-yl)picolinonitrile] | 139 nM
11 | Cc1nc2cc(-c3ncc(F)cc3-c3cnn(CCC(C)(C)F)c3)ccc2n1C [Example 120, 5-(5-fluoro-3-(1-(3-fluoro-3-methylbutyl)-1H-pyrazol-4-yl)pyridin-2-yl)-1,2-dimethyl-1H-benzo[d]imidazole] | 401 nM
12 | Cc1nc2cc(-c3nc(C#N)ccc3-c3cnn(CC(C)(C)C)c3)cnc2n1C [Example 89, 6-(2,3-dimethyl-3H-imidazo[4,5-b]pyridin-6-yl)-5-[1-(2,2-dimethylpropyl)-1H-pyrazol-4-yl]pyridine-2-carbonitrile] | 116 nM
13 | CC(C)CCn1cc(-c2cc(Cl)cnc2-c2ccc3cn(C)nc3c2)cn1 [Example 77, 6-{5-chloro-3-[1-(3-methylbutyl)-1H-pyrazol-4-yl]pyridin-2-yl}-2-methyl-2H-indazole] | 278 nM

Continued, values first:

Row | EC50 | Compound
14 | 55.8 nM | Cc1ccc(-c2cnn(CC(C)(C)C)c2)c(-c2ccn3cnnc3c2)n1 [Example 71, 7-{3-[1-(2,2-dimethylpropyl)-1H-pyrazol-4-yl]-6-methylpyridin-2-yl}[1,2,4]triazolo[4,3-a]pyridine]
15 | 49.9 nM | N#Cc1ccc(-c2cnn(CC3(CF)CC3)c2)c(-c2ccn3ccnc3c2)n1 [Example 19, 5-(1-{[1-(fluoromethyl)cyclo-propyl]methyl}-1H-pyrazol-4-yl)-6-imidazo[1,2-a]pyridin-7-ylpyridine-2-carbonitrile]
16 | 46.8 nM | Cc1nc2cc(-c3nc(C#N)ccc3-c3cnn(CC(C)(C)C)c3)ccn2n1 [Example 63, 6-(2-methyl-[1,2,4]triazolo[1,5-a]pyridin-7-yl)-5-(1-neopentyl-1H-pyrazol-4-yl)picolinonitrile]
17 | 40.2 nM | CC(C)CCn1cc(-c2ccc(Cl)nc2-c2ccc3c(c2)C(=O)N(CC(F)(F)F)C3)cn1 [Example 111, 6-chloro-3-(1-isopentyl-1H-pyrazol-4-yl)-2-(3-oxo-2-(2,2,2-trifluoroethyl)isoindolin-5-yl)pyridin-1-ium]
18 | 25.5 nM | Cc1ccc(-c2cnn(CC(C)(C)C(F)(F)F)c2)c(-c2ccn3ccnc3c2)n1 [Example 26]
19 | 17.7 nM | CC(C)(C)Cn1cc(-c2ccc(C#N)nc2-c2ccn3cc(Cl)nc3c2)cn1 [Example 67, 6-(2-chloroimidazo[1,2-a]pyridin-7-yl)-5-[1-(2,2-dimethylpropyl)-1H-pyrazol-4-yl]pyridine-2-carbonitrile]
20 | 14.5 nM | CCC1(Cn2cc(-c3ccc(C#N)nc3-c3ccn4ccnc4c3)cn2)CC1 [Example 37, 5-{1-[(1-ethylcyclopropyl)methyl]-1H-pyrazol-4-yl}-6-imidazo[1,2-a]pyridin-7-ylpyridine-2-carbonitrile]

same assay, conditions: read-out: HuM4PAM

Row | EC50 | Compound
21 | 107 nM | CC(C)(F)Cn1cc(-c2ccc(C#N)nc2-c2ccn3ccnc3c2)cn1 [Example 121, 5-(1-(2-fluoro-2-methylpropyl)-1H-pyrazol-4-yl)-6-(imidazo[1,2-a]pyridin-7-yl)picolinonitrile]
